Like-named read-outs stand apart in the source and are kept apart here.
Legend:
DMS 273 = assay: NCI human tumor in vitro primary screen; format: cell-based; details: small cell lung cancer
DMS 114 = assay: NCI human tumor in vitro primary screen; format: cell-based; details: small cell lung cancer
[1] = read-out: Log10 GI50 (converted)
[2] = read-out: Log10 TGI (converted)
[3] = read-out: averaged negative log10 GI50 (converted)

Structure (SMILES): C=C1CC2CCC34CC5OC6C(O3)C3OC(CCC3OC6(O)C5O4)CC(=O)OC3C(CC4OC(CCC1O2)CC(C)C4=C)OC1CC2OC4(CC2OC1C3C)CC1OC2(CC(C)C3OC5CC(C(O)CO)OC5CC3O2)CC(C)C1O4 (stereo not drawn) [halistatin 2]
- GI50 (DMS 273; [1]): 0.129 nM
- IC (TGI) (DMS 273; [2]): 5.5 nM
- GI50 (DMS 273; [3]): 0.129 nM
- GI50 (DMS 114; [1]): 0.339 nM
- IC (TGI) (DMS 114; [2]): 1.91 nM
- GI50 (DMS 114; [3]): 0.339 nM
